From patent US20080260644A1, “CHLORIDE TRANSPORT UPREGULATION FOR THE TREATMENT OF TRAUMATIC BRAIN INJURY” (priority 2005, published 2008) come the findings set out here.

Experiment [1] deals with dentate granule cells. Briefly: Gramicidin perforated patch recording of the membrane potential response to GABA in dentate granule cells in brain slices. The experiment is classed as cell-based, mouse. How it is done: Brain slices were prepared as previously reported (Witgen et al. (2005) Neuroscience, 133:1-15). Perforated patch recordings were conducted at room temperature from visually identified DG neurons using infrared differential interference contrast video microscopy (Stuart et al. (1993) Pflugers Arch., 423:511-8). Cells were voltage clamped at −60 mV, and signals were recorded and amplified with Axopatch 200 (Axon instruments, Foster city, CA), filtered at 2 kHz, digitized, and stored on a PC microcomputer for off line analysis. Electrodes were pulled to a resistance between 6 and 8 MΩ when filled with an internal solution composed of in (mM): 100 KCl, 10 Hepes, pH 7.4 (KOH), on a two stage puller (Sutter instruments, Novato, Calif.). Gramicidin (Sigma, St. Louis) was dissolved in dimethyllsulfuxide (DMSO, Sigma) (1-2 mg/ml) then diluted in the pipette filling solution (1:1000). Progress of membrane patch perforation was evaluated by following the decrease in access resistance (Ra) and recordings were begun once Ra had stabilized ([…]). Current-voltage (IV) relationships were generated using a voltage ramp (−110 to +40 ata rate of 107 mV/ms) in the absence and presence of agonist (GABA, 100 μM, applied 125 ms, 40-60 PSI using a Picospritzer II, General Valve Corporation, Fairfield, N.J.). For chloride fluorescence experiments, the internal solution was composed of (in mM) Kgluconate, 145; MgCl2, 2; BAPTA, 0.1; KCl, 2.5; NaCl, 2.5; HEPES, 10; GTP-Tris, 0.5; Mg-ATP, 2; pH 7.4 (KOH; Vhold=0 mV). For low K^+ experiments, KCl concentration was reduced from 3 to 1 mM while the concentration of NaCl was increased to maintain tonicity.
In order to investigate the functional consequences of reduced KCC2 expression in DG from injured animals, gramacidin perforated patch recordings were performed in dentate granule cells in brain slices derived from sham and FPI animals. Current-voltage (1-V) relationships were created using a voltage ramp that stepped the membrane voltage from a holding potential of −60 mV to −110 mV for 200 ms and then ramped the voltage from −110 to +40 mV at a rate of 107 mV/msec. I-V relationships were plotted by subtracting ramp currents recorded in control solution (aCSF) from currents recorded in the presence of ionophoresed agonist (GABA 100 μm) in brain slices from both sham (FIG. 2A) and FPI (FIG. 2B) animals. […] Mean EGABA values were −72±4.3 (n=7) in sham slices and −51±4.0 mV (n=16) in FPI slices. To ensure that the perforated patch configuration remained intact during the experiment, in several dentate granule cells (recorded in slices from both sham and injured animals) the patch was subsequently ruptured to enter into the whole cell configuration. […]

Experiment [2] concerns dentate gyrus. Briefly: Dentate gyrus throughput index (TI), voltage sensitive dye fluorescence in hippocampal slices. The class given is cell-based, mouse. From the text:
Slices were stimulated in the perforant pathway with one theta burst stimulation (TBS) (5 pulses of 50 μA at 100 Hz). Circles (kernels) represent average fluorescent signals in the DG and hilus respectively. FIG. 5B is a graph of the percent throughput of sham and injured (LFPI) mice.
Normal hippocampal function is directly determined by a balance between neuronal excitation and inhibition. Within the hippocampus there are three interconnected subregions referred to collectively as the ‘Trisynaptic Circuit.’ This circuit consists of the dentate gyrus (DG), area CA3, and area CA1, each having distinct physiological roles. The DG “filters” out aberrant or excessive input to the hippocampus and limits this activity from propagating further along the hippocampal circuit. […]
It is believed that the DG acts as a filter because it is extraordinarily resistant to the generation of synchronized bursting characteristic of epileptic seizures. […] Making use of fluorescent voltage sensitive dyes as a measure of hippocampal neuronal activity, a straightforward relationship has been devised in order to quantify the efficacy of dentate gyrus filtering capacity. “Throughput Index” (TI) is defined as the amount of fluorescence in the hilus divided by the fluorescence in the upper (suprapyramidal) blade of the dentate gyrus induced by afferent (perforant path) stimulation. […]

As to `NCCCC(=O)O` [GABA, gamma-aminobutyric acid], the “membrane potential response to iontophoresed GABA” value is on record as −14±0.7 mV in experiment [1] (DG neurons from naïve or sham animals, GABA 100 μM) and “depolarizing response” in experiment [1] (DG neurons in slices from injured (FPI) animals).
`CCCC(=O)O[C@@H]1[C@@H](C)[C@@]2(O)[C@@H](C=C(CO)C[C@]3(O)C(=O)C(C)=C[C@@H]23)[C@@H]2C(C)(C)[C@]12OC(=O)CCC` [PDBu, phorbol 12,13-dibutyrate]: in experiment [2] (slices from brain injured (FPI) animals), the “effect on dentate gyrus throughput index (TI)” value is “significantly (p<0.05) reduces”. The “effect on DG filtering (TI)” value in experiment [2] (slices from sham animals) is reported as “does not affect”.
For the compound `CCCCNc1cc(C(=O)O)cc(S(N)(=O)=O)c1Oc1ccccc1` [bumetanide], the “GABA response in the presence of bumetanide compared to GABA alone” value in experiment [1] (slices from sham animals, bumetanide 10 μM) came to 39%. For the same compound, in experiment [1] (slices from sham animals, bumetanide 10 μM bath applied, n=15), the “response to focally applied GABA in the presence of bumetanide” value is reported as −5±3.1 mV.
